Results: PMC6022639, “A missense allele of KARRIKIN-INSENSITIVE2 impairs ligand-binding and downstream signaling in Arabidopsis thaliana” (Journal of Experimental Botany, 2018)

Assays:
[1] = target: T1, KAI2^ply2 (KAI2^A219V) (Arabidopsis thaliana, UniProt Q9SZU7, A219V); assay: ITC ([…] °C); strongly impaired binding, only marginal change in CPM assay
T1 construct: full-length, recombinant from E. coli, His tag removed

[2] = target: T2, KARRIKIN INSENSITIVE2 (KAI2) (Arabidopsis thaliana, UniProt Q9SZU7); assay: ITC ([…] °C); supported by CPM thermal shift; format: binding
T2 construct: full-length, recombinant from E. coli, His tag removed
T2 sequence (Q9SZU7 1-270): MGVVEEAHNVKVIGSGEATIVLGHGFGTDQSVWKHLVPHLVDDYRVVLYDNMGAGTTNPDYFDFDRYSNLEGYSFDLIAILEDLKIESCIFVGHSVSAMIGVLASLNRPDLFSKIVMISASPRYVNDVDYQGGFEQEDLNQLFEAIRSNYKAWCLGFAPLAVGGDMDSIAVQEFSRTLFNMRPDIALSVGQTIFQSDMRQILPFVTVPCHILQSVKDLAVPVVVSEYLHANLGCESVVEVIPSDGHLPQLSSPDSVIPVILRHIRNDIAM

T1 sequence (Q9SZU7 whole entry A219V): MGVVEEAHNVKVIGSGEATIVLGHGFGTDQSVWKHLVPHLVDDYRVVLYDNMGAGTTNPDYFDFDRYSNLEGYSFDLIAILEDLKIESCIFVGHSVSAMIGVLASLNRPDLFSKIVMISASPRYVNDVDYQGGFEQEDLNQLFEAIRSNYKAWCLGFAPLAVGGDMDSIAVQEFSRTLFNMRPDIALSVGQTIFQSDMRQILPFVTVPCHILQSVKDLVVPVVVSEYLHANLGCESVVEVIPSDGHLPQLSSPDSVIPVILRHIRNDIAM

Cc1c2ccocc-2oc1=O [KAR1, 3-methyl-2H-furo[2,3-c]pyran-2-one]
Kd [1]: 2860 µM | Kd [2]: 147 µM
